Measurements reported in PMC6085350, “Small molecule inhibitors of RAS-effector protein interactions derived using an intracellular antibody fragment” (Nature Communications, 2018).

Legend:
[1] = target: T1, HRAS^G12V-GppNHp (Homo sapiens, UniProt P01112, G12V); test: SPR binding to HRAS G12V-GppNHp
T1 construct: expression of HRAS (1-166) HRAS^G12V or KRAS^G12V cDNA cloned into the pGEX-2T vector; made in house; host or cells: E. coli C41(DE3)
Method: A BIAcore T100 (GE Healthcare) was used to screen the fragment library for RAS binders. A polyclonal goat anti-GST antibody (GE Healthcare) was immobilized on a CM5 sensor chip (GE Healthcare) by the amine coupling method. To immobilize the antibody on CM5 chip, the chip was first activated by injecting 100 µl mixture of 0.2 M EDC (N-ethyl-N-(dimethylaminopropyl) carbodiimide hydrochloride) and 0.05 M NHS (N-hydroxysuccinimide) at 10 µl/min flow rate. Furthermore, 100 µg/ml anti-GST antibody in 10 mM sodium acetate, pH 5.0 was injected at 5 µl/min for 900 s and immobilized until 20,000 ~ 25,000 RU. After immobilization the chip was immediately inactivated by injecting 1 M ethanolamine, pH 8.5 at 10 µl/min for 600 s. The chip was kept running in the HBS buffer (GE Healthcare) comprising 10 mM HEPES, […], 150 mM NaCl. […] Before fragment library screening, the running buffer was replaced by 20 mM Tris, pH 8, 150 mM NaCl, 5 mM MgCl2, 5% DMSO. DMSO solvent correction curves were generated by injecting the running buffers with serial concentrations of DMSO ranging from 4.5 to 6%. For fragment screening, each compound was diluted at 200 µM or 1 mM, 5% DMSO in 20 mM Tris, pH 8, 150 mM NaCl, 5 mM MgCl2 buffer in a polypropylene 96 well plate. The individual compounds were injected at 30 µl for 60 s at 30 µl/min flow rate over flow cells Fc1, Fc2, Fc3 and Fc4. […]

[2] = target: T2, HRASG12V-GTPγS (Homo sapiens, UniProt P01112, G12V); test: waterLOGSY NMR titration for Kd; type: binding
T2 construct: expression of HRAS (1-166) HRAS^G12V or KRAS^G12V cDNA cloned into the pGEX-2T vector; GST (N); made in house; host or cells: E. coli C41(DE3)
Method: The waterLOGSY NMR method[35] was used to measure RAS ligand interaction. WaterLOGSY experiments were conducted at a ^1H frequency of 600 MHz using a Bruker Avance spectrometer equipped with a BBI probe. All experiments were conducted at 298 K, 3 mm diameter NMR tubes with a sample final volume of 200 µl was used in all experiments. Solutions were buffered using an H2O 10 mM PBS, 5 mM MgCl2 buffer corrected to pH 7.4. The sample preparation is exemplified as follows, the compound (10 µl of a […] solution in DMSO-d6) was added to an eppendorf before sequential addition of the H2O PBS buffer (163.6 µl), D2O (20 µl), and protein (6.4 µl, 311.8 µM). The resulting solution was spun to ensure full mixing and transferred to a 3 mm NMR tube before running the experiment. […]
NMR spectra from the Abd-2 titration ranging from 50 to 400μM compound. The dissociation constant of Abd-2 binding to HRASG12V-GTPγS was determined from the curve generated by plotting the reduction of the NMR signal from a selected peak (depicted in green) during the compound titration against the protein. […]

[3] = test system: RAS-effector PPI; test: RAS biosensor BRET assay (partners not specified); type: cell-based, human
Method: The BRET assay was carried out as described elsewhere. A total of 650,000 HEK293T were seeded in each well of a six well plate. Approximately, 24 h later, cells were transfected with an appropriated BRET-based RAS biosensor (i.e. RAS-effector) using Lipofectamine 2000 transfection reagent (Thermo-Fisher). Cells were detached 24 h later and washed with PBS and seeded in a white 96 well plate (clear bottom, PerkinElmer, cat#6005181) in OptiMEM no phenol red medium (Life Technologies) complemented with 4% FBS. Cells were left for 4 h at 37 °C before adding compounds. […] The final concentrations in the cells were 0, 5, 10 and 20 μM (therefore the intermediate 10X concentrations were 0, 50, 100 and 200 μM. Furthermore, 10 μl of 10X compounds were added in each well of the 96 well plate to 0, 5, 10 and 20 μM final concentrations (with final 0.2% DMSO each). Quadruplicates were performed for each point. Cells were left for an additional 20 h at 37 °C before the BRET2 signal reading directly after addition of Coelenterazine 400a substrate (10 μM final) to cells (Cayman Chemicals, cat#16157). BRET2 reading was carried out on an Envision instrument (2103 Multilabel Reader, PerkinElmer) with the BRET2 Dual Emission optical module (515 nm ± 30 and 410 nm ± 80; PerkinElmer).

[4] = Caco-2 cell permeability assay; type: in vitro ADME; details: human
[5] = target: PI3KC2; test: Kinase panel (KinaseProfiler), second PI3KC2 line; type: biochemical, human; details: PI3KC2 (second of two lines), 10μM
Method: Experiments were performed by Eurofins Pharma Discovery Services. The KinaseProfiler™ assay protocol guide can be downloaded from their website: www.eurofins.com/discoveryservices. The guide contains information on the buffer conditions, substrate and reference inhibitor blank used for each kinase.
Supplementary Table 3. Assessment of potential interaction of Abd-7 with a human kinase
Kinase % kinase activity in
A panel of 14 Kinases (relevant to the RAS pathway) has been screened against Abd-7
(10μM) and the kinase activity was measured. […] of activity was observe for all
function of the selected and RAS relevant kinase proteins.

SMILES: O=C(NCC1COc2ccccc2O1)c1ccco1 (stereo not shown) [Abd-2]
- binding to^G12V-GppNHp (SPR) [1]: binds
- ligand efficiency [2]: 0.26
- Kd ([2]; waterLOGSY titration 50 to 400 μM compound, single experimental analysis, read-out: Kd (dissociation constant)): 235 µM
- activity in the RAS biosensor BRET assay [3]: do not show activity

SMILES: COc1nc(-c2cccc3c2OCCO3)ccc1Nc1ccc(CN(C)C)cc1 [Abd-7]
- Papp A→B [4]: 7.03 ×10⁻⁶ cm/s
- Papp B→A [4]: 8.46 ×10⁻⁶ cm/s
- % kinase activity in the presence of Abd-7 [5]: 108%
